The values below come from ChEMBL document CHEMBL4813969, “Design, synthesis and evaluation of 3-amide-5-aryl benzoic acid derivatives as novel P2Y14R antagonists with potential high efficiency against acute gouty arthritis” (Eur J Med Chem, 2021).

The target of data set [1] is T1, P2Y purinoceptor 14 (Homo sapiens) (UniProt Q15391).
T1 sequence (whole entry): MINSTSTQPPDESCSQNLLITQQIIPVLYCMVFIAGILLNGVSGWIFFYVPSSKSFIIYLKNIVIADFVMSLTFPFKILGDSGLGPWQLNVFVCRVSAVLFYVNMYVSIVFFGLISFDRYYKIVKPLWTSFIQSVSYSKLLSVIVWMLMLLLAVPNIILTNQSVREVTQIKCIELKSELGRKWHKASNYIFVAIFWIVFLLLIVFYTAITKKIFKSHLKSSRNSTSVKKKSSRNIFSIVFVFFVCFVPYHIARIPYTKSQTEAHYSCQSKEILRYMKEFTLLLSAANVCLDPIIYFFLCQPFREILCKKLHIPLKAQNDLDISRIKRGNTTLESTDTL
The following applies: time 30.0 min.

The nature of data set [2]: Aqueous solubility of compound in PBS buffer at pH 7.4 incubated for overnight by UV-spectrometry. It is filed as physicochemical.
For a further data set, the target named is T2, P2Y purinoceptor 14 (Homo sapiens, UniProt Q15391).
T2 sequence (Q15391 whole entry): T1 sequence (whole entry)
Nature of the data set: Antagonist activity at P2Y14 (unknown origin) expressed in HEK293 cells assessed as reduction in cAMP production incubated for 30 mins by ADP-glo assay. Format: functional, cell-based.

Data set [3] is described as follows: Chemical stability of compound in DMSO. Format: physicochemical.
The test system of data set [4] is Mus musculus. Nature of the data set: Inhibition of MSU-induced GSDMD-NT level in foot tissue of MSU-induced acute gout arthritis ICR mouse model at 10 mg/kg, sc measured upto 24 hrs by Western blot analysis. It is filed as functional, organism-based. The following applies: time hrs <=24.
The nature of data set [5]: In vivo inhibition of MSU-induced pyroptosis in ICR mouse model of acute gout arthritis assessed as early apoptotic macrophage cells in foot tissue at 10 mg/kg, sc incubated for 24 hrs by caspase-1 and PI staining based flow cytometric analysis (reference value: 12.7 %). It is filed as functional.
Data set [6] concerns Mus musculus. Description: Downregulation of MSU-induced NLRP3 expression in foot tissue of MSU-induced acute gout arthritis ICR mouse model at 10 mg/kg, sc measured upto 24 hrs by Western blot analysis. It is filed as functional, organism-based. The following applies: time hrs <=24.
The subject of data set [7] is Mus musculus. Nature of the data set: Inhibition of MSU-induced IL-1beta level in foot tissue of MSU-induced acute gout arthritis ICR mouse model at 10 mg/kg, sc measured upto 24 hrs by Western blot analysis. Format: functional, organism-based. The following applies: time hrs <=24.
Data set [8] deals with Mus musculus. Nature of the data set: Inhibition of MSU-induced IL-8 level in foot tissue of MSU-induced acute gout arthritis ICR mouse model at 10 mg/kg, sc measured upto 24 hrs by Western blot analysis. The following applies: time hrs <=24. Format: functional, organism-based.
Data set [9] concerns Mus musculus. Nature of the data set: Downregulation of MSU-induced ASC expression in foot tissue of MSU-induced acute gout arthritis ICR mouse model at 10 mg/kg, sc measured upto 24 hrs by Western blot analysis. It is filed as functional, organism-based. The settings on record: time hrs <=24.
Data set [10] relates to Mus musculus. Nature of the data set: Antiarthritic activity against MSU-induced acute gout arthritis ICR mouse model assessed as reduction in paw swelling at 10 mg/kg, sc measured upto 24 hrs. Format: functional, organism-based. The settings on record: time hrs <=24.
Data set [11] has as its system Mus musculus. Description: Downregulation of MSU-induced caspase-1 P20 expression in foot tissue of MSU-induced acute gout arthritis ICR mouse model at 10 mg/kg, sc measured upto 24 hrs by Western blot analysis. Format: functional, organism-based. The settings on record: time hrs <=24.
The nature of data set [12]: In vivo inhibition of MSU-induced pyroptosis in ICR mouse model of acute gout arthritis assessed as late apoptotic macrophage cells in foot tissue at 10 mg/kg, sc incubated for 24 hrs by caspase-1 and PI staining based flow cytometric analysis (reference value: 21.6 %). Format: functional.
Data set [13] is described as follows: In vivo inhibition of MSU-induced pyroptosis in ICR mouse model of acute gout arthritis assessed as viable macrophage cells in foot tissue at 10 mg/kg, sc incubated for 24 hrs by caspase-1 and PI staining based flow cytometric analysis (reference value: 34.3 %). It is filed as functional.
The subject of data set [14] is Mus musculus. Description: Antiarthritic activity against MSU-induced acute gout arthritis ICR mouse model assessed as reduction in infiltration of inflammatory cells at 10 mg/kg, sc measured upto 24 hrs. Format: functional, organism-based. The settings on record: time hrs <=24.
Data set [15] can be described thus: Oral bioavailability in mouse at 10 mg/kg. Format: ADME, organism-based. The following applies: in vivo.
Data set [16] can be described thus: In vivo inhibition of MSU-induced pyroptosis in ICR mouse model of acute gout arthritis assessed as necrotic macrophage cells in foot tissue at 10 mg/kg, sc incubated for 24 hrs by caspase-1 and PI staining based flow cytometric analysis (reference value: 31.4 %). Format: functional.
Data set [17] is described as follows: Cmax in mouse at 5 mg/kg, iv. Format: ADME, organism-based. More on the design: route intravenous, dose 5 mg/kg. The following applies: in vivo.
The nature of data set [18]: AUC in mouse at 5 mg/kg, iv. Format: ADME, organism-based. More on the design: dose 5 mg/kg. The following applies: in vivo.
A short description of data set [19]: Half life in mouse at 5 mg/kg, iv. It is filed as ADME, organism-based. The following applies: in vivo.
Data set [20] is described as follows: Tmax in mouse at 5 mg/kg, iv. Format: ADME, organism-based. The following applies: in vivo.
Data set [21] is described as follows: Half life in mouse at 10 mg/kg, po. The settings on record: in vivo. It is filed as ADME, organism-based.
Data set [22] in a line: Cmax in mouse at 10 mg/kg, po. It is filed as ADME, organism-based. Further details: route oral, dose 10 mg/kg. The settings on record: in vivo.
Data set [23] in a line: Metabolic stability in human liver microsomes assessed as half life at […] incubated for 45 mins by LC-MS/MS analysis. Format: ADME, Microsome.
Data set [24] is described as follows: Clearance in mouse at 10 mg/kg, po. Format: ADME, organism-based. The following applies: in vivo.
A short description of data set [25]: AUC in mouse at 10 mg/kg, po. It is filed as ADME, organism-based. Further details: dose 10 mg/kg. The settings on record: in vivo.
A short description of data set [26]: Volume of distribution at steady state in mouse at 5 mg/kg, iv. It is filed as ADME, organism-based. The following applies: in vivo, read-out: Vdss.
A short description of data set [27]: Volume of distribution at steady state in mouse at 10 mg/kg, po. Format: ADME, organism-based. The following applies: in vivo.
Setting [28] is: HEK293, filed as antagonist, dose 100.0 nM.

≈ marks a conversion by molar mass, not a printed value. Calls of active or inactive are those of the source. No cut-off for these calls is given here.

`COc1ncc(-c2cc(NC(=O)c3ccc(C)cc3)cc(C(=O)O)c2)cn1` had an inhibition in [1] (setting [28]) of 72.5%.

For `Cc1ccc(C(=O)Nc2cc(C(=O)O)cc(-c3ccco3)c2)cc1`, the inhibition in data set [1] (setting [28]) turned out to be 61.1%.

As to `Cc1ccc(C(=O)Nc2cc(C(=O)O)cc(-c3ccc(C)s3)c2)cc1`, the inhibition in [1] (setting [28]) was 60.2%.

In data set [1] (setting [28]), `Cc1ccc(C(=O)Nc2cc(C(=O)O)cc(-c3ccncc3)c2)cc1` had an inhibition of 72.1%.

For `Cc1ccc(C(=O)Nc2cc(C(=O)O)cc(-c3ccccc3)c2)cc1`, the solubility in data set [2] is 46.3 µg/mL (≈ 140 µM). Moreover, the IC50 at P2Y purinoceptor 14 was 4.85 nM. This compound also returned an inhibition in [1] (setting [28]) of 87%.

The compound `Cc1ccc(C(=O)Nc2cc(C(=O)O)cc(-c3cccnc3)c2)cc1` gave an inhibition in [1] (setting [28]) of 79.1%.

`Cc1ccc(C(=O)Nc2cc(C(=O)O)cc(-c3cc[nH]n3)c2)cc1`: the IC50 at P2Y purinoceptor 14 was found to be 2.63 nM. Also, the inhibition in [1] (setting [28]) is 86.8%. Also, the Stabilty entry in [3] is on record as “Unstable”.

As for `Cc1ccc(C(=O)Nc2cc(C(=O)O)cc(-c3cnc(N)nc3)c2)cc1`, the inhibition in data set [1] (setting [28]) is 68.6%.

Turning to `Cc1ccc(C(=O)Nc2cc(C(=O)O)cc(-c3ccsc3)c2)cc1`, the IC50 on P2Y purinoceptor 14 was 9.74 nM. This compound also gave an inhibition in data set [1] (setting [28]) of 83%.

For the compound `Cc1ccc(C(=O)Nc2cc(C(=O)O)cc(-c3ccc(C)o3)c2)cc1`, the inhibition in data set [1] (HEK293, dose 100.0 nM) worked out at 16.1%.

Consider `Cc1ccc(C(=O)Nc2cc(C(=O)O)cc(-c3c(C)noc3C)c2)cc1`, for which, on P2Y purinoceptor 14, the concentration for half-maximal inhibition (IC50) was 2.95 nM. The compound further returned an inhibition in data set [1] (setting [28]) of 82.3%. Also, the Stabilty entry in data set [3] is on record as “Unstable”.

`Cc1ccc(C(=O)Nc2cc(C(=O)O)cc(-c3cccs3)c2)cc1` showed an inhibition in data set [1] (setting [28]) of 68.8%.

`CC(=O)c1ccc(-c2cc(NC(=O)c3ccc(C)cc3)cc(C(=O)O)c2)s1` came in with an inhibition in data set [1] (setting [28]) of 43.7%.

With `Cc1ccc(C(=O)Nc2cc(C(=O)O)cc(-c3cncnc3)c2)cc1`, the inhibition in data set [1] (setting [28]) worked out at 65.7%.

`COc1ccc(-c2cc(NC(=O)c3ccc(C)cc3)cc(C(=O)O)c2)cc1`: the inhibition in data set [1] (setting [28]) was 79.1%.

In the case of `Cc1ccc(C(=O)Nc2cc(C(=O)O)cc(-c3ccc[nH]3)c2)cc1`, the inhibition in data set [1] (setting [28]) was 46%.

Turning to `O=C(O)c1cc(-c2ccc(C3CCNCC3)cc2)c2ccc(-c3ccc(C(F)(F)F)cc3)cc2c1` [PPTN], the inhibition result in the data set on Mus musculus [4], with Mus musculus [7] and with Mus musculus [8] was “Active” in each case. Moreover, the inhibition in vivo at 10 mg/kg in data set [5] is 17.3%; in data set [12], 6.41%; in data set [13], 65.1%; in data set [16], 11.1%. Moreover, the result with Mus musculus [6], in the data set with Mus musculus [9], in the data set on Mus musculus [10], in the data set on Mus musculus [11] and in the data set with Mus musculus [14] was Active. This compound also returned a solubility in data set [2] of less than 5 µg/mL. In addition, in data set [15], the bioavailability came out at 7%.

The compound `Cc1ccc(C(=O)Nc2cc(C(=O)O)cc(-c3ccc(C4CCNCC4)cc3)c2)cc1` came in with an inhibition in [1] (setting [28]) of 85.3%. In data set [15], the bioavailability was 6%.

Take `Cc1ccc(C(=O)Nc2cc(C(=O)O)cc(-c3ccoc3)c2)cc1`: the Cmax in data set [17] was 19300 ng/mL; in data set [22] it was 1800 ng/mL. Further, the inhibition entry with Mus musculus [4], in the data set with Mus musculus [7] and in the data set on Mus musculus [8] was “Active” each time. Besides, the AUC in data set [18] was 843849 ng·min/mL; in data set [25], 7280 ng·h/mL. The inhibition in vivo at 10 mg/kg was found to be 13% in data set [5], 10.9% in data set [12], 43.2% in data set [13] and 33% in data set [16]. Also, the half-life in data set [19] was 2.32 h; in data set [21], 2.56 h; in [23] it was greater than 1 h. The Tmax in data set [20] is 5 min. In addition, the outcome in the data set on Mus musculus [6], in the data set on Mus musculus [9], in the data set on Mus musculus [10], with Mus musculus [11] and with Mus musculus [14] was Active. For the same compound, the solubility in [2] was 77.6 µg/mL (≈ 241 µM). Also, in data set [24], the CL/F is 6.03 mL/min/kg. Also, the IC50 on P2Y purinoceptor 14 was 2.18 nM. This compound registered an inhibition in data set [1] (setting [28]) of 93.4%. The Vd in [26] is 0.782 L/kg. For the same compound, the Vdss in [27] came out at 0.21267 L/kg. In addition, the bioavailability in data set [15] is 48.3%. Also, the Stabilty result in data set [3] was “Stable”.
